Experimental data taken from patent US11000039B2, “Composition for controlling nematode comprising grammicin compound as effective ingredient and uses thereof” (INDUSTRY FOUNDATION OF CHONNAM NATIONAL UNIVERSITY, priority 2016, dated 2021).
≈ marks a conversion by molar mass, not a printed value.

How the values were obtained:
[1] = tested on: sweet potato root knot nematode (M. incognita) 2nd stage juveniles; test: organism not typed; conditions: for LC50: Meloidogyne incognita, read-out: LC50 M. incognita 72 h
Protocol: The three layers were finally applied at concentrations of 15.6, 31.3, 62.5, 125, 250, 500, or 1,000 μg/ml. As a control group, treatment with 1% acetone and methanol was carried out, and, after the treatment, the 96-well plate was shaken for 30 seconds so that the test compound is mixed well. Thereafter, the plate was added to a plastic container having relative humidity of 100% and stored at room temperature. To obtain eggs of a root knot nematode from roots of tomato infected by root knot nematode, plant roots were washed with tap water to remove adhering soil and cut into 1 cm pieces. Eggs were extracted in 0.5% sodium hypochlorite solution for 1 min and collected by passage through 45 and 25 μm sieves. Second-stage juveniles (J2) were allowed to hatch in modified Baermann funnels at 20° C.
Ninety nine μl of 50 2nd stage juveniles of sweet potato root knot nematode were added to each well of a 96-well plate, and then, according to a treatment of 1% solvent extract, the final volume per well was adjusted to 100 μl. […] 72 Hours after the treatment with a test compound, mortality was determined under an optical inverted microscope by using the equation shown below. As for the mortality, the linear nematode showing no movement was taken as dead nematode, the nematode showing movement of flexible curve was taken as live nematode, and the mortality was examined using the following equation. Mortality (%)=[Mortality percentage in treatment−mortality percentage of negative control/(100−mortality percentage in negative control)]×100
To determine the mortality and activity of inhibiting egg hatching of the purified compound, the compound was dissolved in methanol and trans-cinnamaldehyde as a control agent was dissolved in ethanol and used for the experiment. […] Furthermore, the activity of inhibiting egg hatching of sweet potato root knot nematode (M. incognita) was also examined at the same concentration. As a non-treatment group, 1% methanol and ethanol were used, and, according to the method explained above, the mortality and activity of inhibiting egg hatching were examined. The experiments were carried out in triplicate. The mortality was determined 3 days after the treatment of a test compound while the rate of inhibiting egg hatching was determined 14 days after the treatment of a test compound. The rate of inhibiting egg hatching was calculated based on the following equation. Egg hatching inhibitory activity (%)=[(C−T)/C]×100,

[2] = tested on: colon cancer cell SW.71; test: MTT cell viability assay (human cytotoxicity); conditions: for Cell viability compared to the non-treatment group / Cytotoxicity, in words: 24 hours; for Cytotoxicity, in words: test concentration 0.1 to 10 μg/ml
Protocol: The colon cancer cell SW.71 as a cell line used for the experiment was kept in −196° C. liquid nitrogen tank until use. The colon cancer cell SW.71 was added, in RPMI-1640 (Life Technologies Inc., USA) medium, with 10% FBS (fetal bovine serum, Gibco) and 1% penicillin-streptomycin, cultured for 72 hours in an incubator at condition of 37° C., 5% CO2, and then used. As for the MTT reagent, thiazolyl blue tetrazolium bromide was used, and, after dissolving it in PBS (phosphate buffer saline) to have final concentration of 5 mg/ml, it was kept at 4° C. under light-shielding condition. The colon cancer cell SW.71 was inoculated, in an amount of 130 μl, to a 96-well plate to have concentration of 5×10^3 or 1×10^4 cells/well. […] After culturing the cells for 24 hours, the MTT solution was added in an amount of 14.5 μl for each well followed by culture for 2 hours or longer at 37° C. The medium was carefully removed and DMSO was added in an amount of 108.5 μl per well to terminate the reaction followed by stirring using a plate shaker for 30 minutes at room temperature, dark conditions. Thereafter, by using a microplate ELISA reader, absorbance at a wavelength of 540 nm was measured, and the cell viability after culture for 24 hours was examined. For the non-treatment group, 1% MeOH was added to a DMEM medium. All the experiments were repeated in triplicate.

[3] = tested on: carrot root knot nematode (M. hapla) 2nd stage juveniles; test: Mortality against 2nd stage juveniles of carrot root knot nematode; parameters: species or system Meloidogyne hapla; conditions: 72 h; for LC50: 2nd stage juveniles
[4] = tested on: eggs of sweet potato root knot nematode (M. incognita); test: Egg hatching inhibitory activity against sweet potato root knot nematode; parameters: species or system Meloidogyne incognita; conditions: 336 h, 14 days after treatment, read-out: Rate of inhibiting egg hatching; for inhibition at 3.1 µg/mL: 3.1 μg/ml; for inhibition at 25 µg/mL: 25 μg/ml
Protocol: The experiments were carried out in triplicate. […] Egg hatching inhibitory activity (%)=[(C−T)/C]×100,
C=Egg hatching rate of control group*, T=Egg hatching rate of treatment group *Egg hatching rate (%)=Number of juveniles/[Number of egg+Number of juveniles]×100

For `O=C1C=C2C(=CCOC2O)O1` (stereo not shown) [patulin], the “Mortality against root knot nematodes, in words (summary)” value [1] was “almost no activity”, the mortality at 100 µg/mL [1] was 38.7% and the “Cell viability compared to the non-treatment group” value ([2]; 0.1 μg/ml, 1×10^4 cells/well) was 66.2%. For the same molecule, the “Cell viability compared to the non-treatment group” value ([2]; 0.1 μg/ml, 5×10^3 cells/well) was 72.2%, the “Cell viability compared to the non-treatment group” value ([2]; 0.5 μg/ml, 1×10^4 cells/well) was 80.5% and the “Cell viability compared to the non-treatment group” value ([2]; 0.5 μg/ml, 5×10^3 cells/well) was 72.1%. For the same molecule, the “Cell viability compared to the non-treatment group” value ([2]; 1 μg/ml, 1×10^4 cells/well) was 75.3%, the “Cell viability compared to the non-treatment group” value ([2]; 1 μg/ml, 5×10^3 cells/well) was 42.1% and the “Cell viability compared to the non-treatment group” value ([2]; 5 μg/ml, 1×10^4 cells/well) was 58.4%. The “Cell viability compared to the non-treatment group” value ([2]; 5 μg/ml, 5×10^3 cells/well) was 43.5%, the “Cell viability compared to the non-treatment group” value ([2]; 10 μg/ml, 1×10^4 cells/well) was 27.6% and the “Cell viability compared to the non-treatment group” value ([2]; 10 μg/ml, 5×10^3 cells/well) was 31.4%.

`O=C1C=C2C(O)C=COC2O1` (stereo not shown) [grammicin] was tested, and the “Mortality against root knot nematodes, in words (summary)” value [1] was “very high mortality”, the mortality at 12.5 µg/mL ([1]; 72 h) was 52.8% and the mortality at 50 µg/mL ([1]; 72 h) was 100%. The LC50 ([1]; 72 h) was 15.9 µg/mL (≈ 103 µM), the mortality at 25 µg/mL ([3]; 25 μg/ml, 3 days after treatment) was 62.4% and the mortality at 50 µg/mL ([3]; 50 μg/ml, 3 days after treatment) was 100%. The LC50 [3] was 3.12 µg/mL (≈ 20.2 µM), the inhibition at 3.1 µg/mL [4] was 68.2% and the inhibition at 25 µg/mL [4] was 91.4%. The “Cytotoxicity for colon cancer cells, in words (summary)” value ([2]; at a test concentration) was “no toxicity”, the “Cytotoxicity, in words” value ([2]; 1×10^4 cells/well) was “no cytotoxicity” and the “Cytotoxicity, in words” value ([2]; 5×10^3 cells/well) was “no cytotoxicity”.

`O=C/C=C/c1ccccc1` [trans-cinnamaldehyde] was tested, and the LC50 ([1]; 72 h) was 18.3 µg/mL (≈ 139 µM), the LC50 [3] was 8.56 µg/mL (≈ 64.8 µM) and the inhibition at 3.1 µg/mL [4] was 31.3%. The inhibition at 25 µg/mL [4] was 65%.
